Drawing on patent US20230108125A1, “SMALL MOLECULE COMPOUNDS” (Apertor Pharmaceuticals, Inc., priority 2021, published 2023), this text covers MIC for 3 molecules.

The test system of the test is Saccharomyces cerevisiae BY4742. Kind of test: Anti-yeast activity assay (minimum inhibitory concentration). The following applies: YPD media, 30° C., 16 hours, lowest concentration with no obvious culture growth, triplicate, read-out: MIC against Saccharomyces cerevisiae BY4742. Type of test: cell-based. The method, then:
A single colony of Saccharomyces cerevisiae BY4742 was inoculated into 2 mL YPD media in a 5 mL falcon tube to grow overnight at 30° C. The overnight culture was inoculated into 5 mL YPD media in a glass tube at OD600=0.1, and the new culture was grown at 30° C. until OD600 reached 0.5. The culture was then diluted to OD600=0.01 and aliquoted into 96-well plates at 100 μL per well. The compound was dissolved in ethanol at 75 μM. Three-fold serial dilutions were conducted for the Compound 10 times using ethanol, respectively. 4 μL of each concentration compound solution was added and mixed with 384 μL YPD media. 100 μL of the YPD media solutions were mixed with the Saccharomyces cerevisiae cultures in 96-well plates by pipette, respectively. The plates were incubated at 30° C. for 16 hours without shaking. The lowest Compound concentrations in wells that have no obvious culture growth were defined as the minimum inhibitory concentrations (MICs). The assays were conducted in triplicate.
Turning to `CO[C@H]1C[C@@H]2CC[C@@H](C)[C@@](O)(O2)C(=O)C(=O)N2CCCC[C@H]2C(=O)O[C@H]([C@H](C)C[C@@H]2CC[C@@H](O)[C@H](OC)C2)CC(=O)C/C=C(\C)[C@@H](O)[C@@H](OC)C(=O)[C@H](C)C[C@H](C)/C=C/C=C/C=C/1C` [Compound 10, (3S,7E,9R,10R,12R,14S,15E,17E,19E,21S,23S,26R,27R,34aS)-9,27-dihydroxy-3-((R)-1-((1S,3R,4R)-4-hydroxy-3-methoxycyclohexyl)propan-2-yl)-10,21-dimethoxy-8,12,14,20,26-pentamethyl-9,10,12,13,14,21,22,23,24,25,26,27,32,33,34,34a-hexadecahydro-3H-23,27-epoxypyrido[2,1-c][1]oxa[4]azacyclohentriacontine-1,5,11,28,29(4H,6H,31H)-pentaone], the minimal inhibitory concentration (MIC) (as a rule, the lowest concentration found to suppress growth) was less than 0.0556 µM.
The value for `CO[C@H]1C[C@@H]2CCC[C@@](O)(O2)C(=O)C(=O)N2CCCC[C@H]2C(=O)O[C@H]([C@H](C)C[C@@H]2CC[C@@H](O)[C@H](OC)C2)CC(=O)[C@H](C)/C=C(\C)[C@@H](O)[C@@H](OC)C(=O)[C@H](C)C[C@H](C)/C=C/C=C/C=C/1C` [Compound 12, (3S,6R,7E,9R,10R,12R,14S,15E,17E,19E,21S,23S,27R,34aS)-9,27-dihydroxy-3-((R)-1-((1S,3R,4R)-4-hydroxy-3-methoxycyclohexyl)propan-2-yl)-10,21-dimethoxy-6,8,12,14,20-pentamethyl-9,10,12,13,14,21,22,23,24,25,26,27,32,33,34,34a-hexadecahydro-3H-23,27-epoxypyrido[2,1-c][1]oxa[4]azacyclohentriacontine-1,5,11,28,29(4H,6H,31H)-pentaone] was less than 0.0556 µM; that for `CO[C@@H]1/C(C)=C/C=C/C=C/[C@@H](C)C[C@@H](C)C(=O)[C@H](OC)[C@H](O)/C(C)=C/[C@@H](C)C(=O)C[C@@H]([C@H](C)C[C@@H]2CC[C@@H](O)[C@H](OC)C2)OC(=O)[C@@H]2CCCCN2C(=O)C(=O)[C@]2(O)O[C@@H](CC[C@H]2C)[C@@H]1C` [Compound 15, (3S,6R,7E,9R,10R,12R,14S,15E,17E,19E,21S,22S,23S,26R,27R,34aS)-9,27-dihydroxy-3-((R)-1-((1S,3R,4R)-4-hydroxy-3-methoxycyclohexyl)propan-2-yl)-10,21-dimethoxy-6,8,12,14,20,22,26-heptamethyl-9,10,12,13,14,21,22,23,24,25,26,27,32,33,34,34a-hexadecahydro-3H-23,27-epoxypyrido[2,1-c][1]oxa[4]azacyclohentriacontine-1,5,11,28,29(4H,6H,31H)-pentaone] was less than 0.0556 µM.
